Measured values as given in PMC6271239, “Synthesis and in Vitro Evaluation of New Nitro-Substituted Thiazolyl Hydrazone Derivatives as Anticandidal and Anticancer Agents” (Molecules, 2014).
In brackets after ≈: the same amount, converted by molar mass.

Experiments:
[1] = tested on: MCF-7 human breast adenocarcinoma cell line; experiment: MTT cytotoxicity assay; assay type: cell-based; settings: 3.9–500 µg/mL; for IC50: Homo sapiens, MCF7, 24 h incubation
Method: (§1) The tetrazolium salt, MTT (3-(4,5-dimethylthiazol-2-yl)-2,5-diphenyltetrazolium bromide), is used to measure the metabolic activity of viable cells. Tetrazolium salts are reduced to formazan by mitochondrial succinate dehydrogenase, an enzyme which is only active in cells with an intact metabolism. The formazan can be quantified photometrically and it is in correlation with the number of viable cells. Cytotoxicity was tested using the MCF-7 human breast adenocarcinoma cell line and NIH/3T3 mouse embryonic fibroblast cell line. NIH/3T3 and MCF-7 cells were incubated in RPMI medium (Hyclone, Thermo Scientific, Logan, UT, USA) supplemented with fetal calf serum (Hyclone), 100 IU/mL penicillin and […] (Hyclone) at 37 °C in a humidified atmosphere of 95% air and 5% CO2. MCF-7 and NIH/3T3 cells were seeded at 10,000 cells into each well of 96-well plates. After 24 h of incubating period, the culture mediums were removed and compounds were added to culture medium at 3.9–500 µg/mL concentrations. After 24 h of incubation, cytotoxicity tests were performed using the MTT assay, which measures mitochondrial activity, in MCF-7 and NIH/3T3 cells. Firstly, 20 µL MTT solution (5 mg/mL MTT powder in PBS) was added to each well. After 3 h incubation period at 37 °C, 5% CO2, the contents of the wells were removed and 100 µL DMSO was added to each well. Then, OD of the plate was read at 570 nm. Inhibition% was calculated for each concentration of the compounds. IC50 values were estimated by non-linear regression analysis. Cisplatin was used as a positive control. Stock solutions of compounds were prepared in DMSO and further dilutions were made with fresh culture medium. All experiments were performed in duplicate.

[2] = tested on: NIH/3T3 mouse embryonic fibroblast cell line; experiment: MTT cytotoxicity assay; assay type: cell-based; settings: 3.9–500 µg/mL; for IC50: Mus musculus, NIH3T3, 24 h incubation
Method: as §1

[3] = tested on: Candida albicans (ATCC 10231); experiment: Anticandidal broth microdilution assay; assay type: cell-based; settings: ATCC10231, RPMI, 37 °C, 24 h
Method: (§2) Anticandidal activity assay was performed against Candida albicans (ATCC 10231), Candida utilis (NRRLY 900), Candida tropicalis (NRRLY 12968), Candida krusei (NRRLY 7179), Candida parapsilosis (NRRLY 12696) and Candida glabrata (ATCC 2001) standard strains according to the CSLI method.
(§3) The minimum inhibitory concentration (MIC, µg/mL) values against pathogenic Candida strains were determined by a broth microdilution method using a 96-well plate format. Compounds 1–14 and fluconazole as a standard control were first dissolved in dimethyl sulfoxide (DMSO) (25%) at an initial concentration of 2000 µg/mL.
(§4) All Candida strains were inoculated on Potato Dextrose Agar (PDA) prior the experiments at 37 °C. After the incubation, sufficiently grown microorganisms were inoculated in sterile saline (0.85%), and then standardized according to the turbidity to 5 × 10^3 CFU (McFarland No: 0.5) per well in RPMI medium under sterile conditions. Serial dilutions were prepared in 100 µL RPMI medium with an equal amount of the test samples, and 100 µL each microorganism suspension was pipetted into each well and incubated at 37 °C for 24 h. Positive growth controls (to assess the presence of turbidity) were performed in wells without the test samples, whereas the negative growth control (medium) was also evaluated. MIC was deﬁned as the lowest concentration without any visible growth of the yeast when compared with the growth in the control plate. All experiments were performed in duplicate.

[4] = tested on: Candida glabrata (ATCC 2001); experiment: Anticandidal broth microdilution assay; assay type: cell-based; settings: Nakaseomyces glabratus, ATCC2001, RPMI, 37 °C, 24 h
Method: as §2, §3, §4

[5] = tested on: Candida krusei (NRRLY 7179); experiment: Anticandidal broth microdilution assay; assay type: cell-based; settings: Pichia kudriavzevii, RPMI, 37 °C, 24 h
Method: as §2, §3, §4

[6] = tested on: Candida parapsilosis (NRRLY 12696); experiment: Anticandidal broth microdilution assay; assay type: cell-based; settings: Lodderomyces parapsilosis, RPMI, 37 °C, 24 h
Method: as §2, §3, §4

[7] = tested on: Candida tropicalis (NRRLY 12968); experiment: Anticandidal broth microdilution assay; assay type: cell-based; settings: RPMI, 37 °C, 24 h
Method: as §2, §3, §4

[8] = tested on: Candida utilis (NRRLY 900); experiment: Anticandidal broth microdilution assay; assay type: cell-based; settings: Williopsis jadinii, RPMI, 37 °C, 24 h
Method: as §2, §3, §4

| MIC [3] [µg/mL] | MIC [4] [µg/mL] | MIC [5] [µg/mL] | MIC [6] [µg/mL] | MIC [7] [µg/mL] | MIC [8] [µg/mL] | melting point [°C] | SMILES | IC50 MCF-7 Cell Line ([1]; 24 h incubation) [µg/mL] | IC50 NIH/3T3 Cell Line ([2]; 24 h incubation) [µg/mL] | IC50 [1] [µg/mL] | IC50 [2] [µg/mL] |
| --- | --- | --- | --- | --- | --- | --- | --- | --- | --- | --- | --- |
| 500 (≈ 1180 µM) | 1000 (≈ 2350 µM) | 500 (≈ 1180 µM) | 1000 (≈ 2350 µM) | 500 (≈ 1180 µM) | 500 (≈ 1180 µM) | 194 to 195 | O=[N+]([O-])c1cc(Cl)ccc1-c1ccc(C=NNc2nc(-c3ccccc3)cs2)o1 [Compound 8, 2-[2-((5-(4-Chloro-2-nitrophenyl)furan-2-yl)methylene)hydrazinyl]-4-phenylthiazole] |  |  | > 500 | > 500 |
| 500 (≈ 1130 µM) | 1000 (≈ 2260 µM) | 1000 (≈ 2260 µM) | 500 (≈ 1130 µM) | 500 (≈ 1130 µM) | 250 (≈ 565 µM) | 208 to 209 | O=[N+]([O-])c1cc(Cl)ccc1-c1ccc(C=NNc2nc(-c3ccc(F)cc3)cs2)o1 [Compound 10, 2-[2-((5-(4-Chloro-2-nitrophenyl)furan-2-yl)methylene)hydrazinyl]-4-(4-fluorophenyl)thiazole] |  |  | 122 (≈ 275 µM) | 250 (≈ 565 µM) |
| 500 (≈ 1090 µM) | 1000 (≈ 2180 µM) | 1000 (≈ 2180 µM) | 500 (≈ 1090 µM) | 500 (≈ 1090 µM) | 500 (≈ 1090 µM) | 186 to 187 | O=[N+]([O-])c1cc(Cl)ccc1-c1ccc(C=NNc2nc(-c3ccc(Cl)cc3)cs2)o1 [Compound 11, 2-[2-((5-(4-Chloro-2-nitrophenyl)furan-2-yl)methylene)hydrazinyl]-4-(4-chlorophenyl)thiazole] |  |  | 125 (≈ 272 µM) | > 500 |
| 500 (≈ 993 µM) | 500 (≈ 993 µM) | 1000 (≈ 1990 µM) | 500 (≈ 993 µM) | 1000 (≈ 1990 µM) | 1000 (≈ 1990 µM) | 199 to 201 | O=[N+]([O-])c1cc(Cl)ccc1-c1ccc(C=NNc2nc(-c3ccc(Br)cc3)cs2)o1 [Compound 12, 4-(4-Bromophenyl)-2-[2-((5-(4-chloro-2-nitrophenyl)furan-2-yl)methylene)hydrazinyl]thiazole] |  |  | 500 (≈ 993 µM) | > 500 |
| 250 (≈ 570 µM) | 500 (≈ 1140 µM) | 500 (≈ 1140 µM) | 1000 (≈ 2280 µM) | 500 (≈ 1140 µM) | 500 (≈ 1140 µM) | 166 to 167 | Cc1ccc(-c2csc(NN=Cc3ccc(-c4ccc(Cl)cc4[N+](=O)[O-])o3)n2)cc1 [Compound 13, 2-[2-((5-(4-Chloro-2-nitrophenyl)furan-2-yl)methylene)hydrazinyl]-4-(p-tolyl)thiazole] |  |  | 500 (≈ 1140 µM) | > 500 |
| 250 (≈ 550 µM) | 500 (≈ 1100 µM) | 500 (≈ 1100 µM) | 500 (≈ 1100 µM) | 250 (≈ 550 µM) | 250 (≈ 550 µM) | 206 to 207 | COc1ccc(-c2csc(NN=Cc3ccc(-c4ccc(Cl)cc4[N+](=O)[O-])o3)n2)cc1 [Compound 14, 2-[2-((5-(4-Chloro-2-nitrophenyl)furan-2-yl)methylene)hydrazinyl]-4-(4-methoxyphenyl)thiazole] |  |  | > 500 | > 500 |
| 1 (≈ 3.27 µM) | 2 (≈ 6.53 µM) | 2 (≈ 6.53 µM) | 2 (≈ 6.53 µM) | 1 (≈ 3.27 µM) | 2 (≈ 6.53 µM) |  | OC(Cn1cncn1)(Cn1cncn1)c1ccc(F)cc1F [Fluconazole, reference compound] |  |  |  |  |

Continued, compound first:

| SMILES | MIC [3] [µg/mL] | MIC [4] [µg/mL] | MIC [5] [µg/mL] | MIC [6] [µg/mL] | MIC [7] [µg/mL] | MIC [8] [µg/mL] | melting point [°C] | IC50 MCF-7 Cell Line ([1]; 24 h incubation) [µg/mL] | IC50 NIH/3T3 Cell Line ([2]; 24 h incubation) [µg/mL] | IC50 [1] [µg/mL] | IC50 [2] [µg/mL] |
| --- | --- | --- | --- | --- | --- | --- | --- | --- | --- | --- | --- |
| N.N.[Cl][Pt][Cl] [Cisplatin, reference compound] |  |  |  |  |  |  |  | 31.2 | 330.58 |  |  |
| O=[N+]([O-])c1ccc(-c2ccc(C=NNc3nc(-c4ccccc4)cs3)o2)cc1 [Compound 1, 2-[2-((5-(4-Nitrophenyl)furan-2-yl)methylene)hydrazinyl]-4-phenylthiazole] | 500 (≈ 1280 µM) | 1000 (≈ 2560 µM) | 500 (≈ 1280 µM) | 500 (≈ 1280 µM) | 1000 (≈ 2560 µM) | 500 (≈ 1280 µM) | 213 to 214 |  |  | > 500 | > 500 |
| O=[N+]([O-])c1ccc(-c2csc(NN=Cc3ccc(-c4ccc([N+](=O)[O-])cc4)o3)n2)cc1 [Compound 2, 4-(4-Nitrophenyl)-2-[2-((5-(4-nitrophenyl)furan-2-yl)methylene)hydrazinyl]thiazole] | 500 (≈ 1150 µM) | 1000 (≈ 2300 µM) | 500 (≈ 1150 µM) | 500 (≈ 1150 µM) | 500 (≈ 1150 µM) | 500 (≈ 1150 µM) | 252 to 254 |  |  | > 500 | > 500 |
| O=[N+]([O-])c1ccc(-c2ccc(C=NNc3nc(-c4ccc(F)cc4)cs3)o2)cc1 [Compound 3, 4-(4-Fluorophenyl)-2-[2-((5-(4-nitrophenyl)furan-2-yl)methylene)hydrazinyl]thiazole] | 500 (≈ 1220 µM) | 1000 (≈ 2450 µM) | 500 (≈ 1220 µM) | 500 (≈ 1220 µM) | 500 (≈ 1220 µM) | 500 (≈ 1220 µM) | 241 to 242 |  |  | 500 (≈ 1220 µM) | 250 (≈ 612 µM) |
| O=[N+]([O-])c1ccc(-c2ccc(C=NNc3nc(-c4ccc(Cl)cc4)cs3)o2)cc1 [Compound 4, 4-(4-Chlorophenyl)-2-[2-((5-(4-nitrophenyl)furan-2-yl)methylene)hydrazinyl]thiazole] | 500 (≈ 1180 µM) | 500 (≈ 1180 µM) | 500 (≈ 1180 µM) | 1000 (≈ 2350 µM) | 500 (≈ 1180 µM) | 500 (≈ 1180 µM) | 229 to 231 |  |  | > 500 | > 500 |
| O=[N+]([O-])c1ccc(-c2ccc(C=NNc3nc(-c4ccc(Br)cc4)cs3)o2)cc1 [Compound 5, 4-(4-Bromophenyl)-2-[2-((5-(4-nitrophenyl)furan-2-yl)methylene)hydrazinyl]thiazole] | 500 (≈ 1070 µM) | 1000 (≈ 2130 µM) | 1000 (≈ 2130 µM) | 500 (≈ 1070 µM) | 500 (≈ 1070 µM) | 500 (≈ 1070 µM) | 243 to 244 |  |  | > 500 | > 500 |
| Cc1ccc(-c2csc(NN=Cc3ccc(-c4ccc([N+](=O)[O-])cc4)o3)n2)cc1 [Compound 6, 2-[2-((5-(4-Nitrophenyl)furan-2-yl)methylene)hydrazinyl]-4-(p-tolyl)thiazole] | 500 (≈ 1240 µM) | 500 (≈ 1240 µM) | 1000 (≈ 2470 µM) | 500 (≈ 1240 µM) | 1000 (≈ 2470 µM) | 500 (≈ 1240 µM) | 236 to 237 |  |  | > 500 | > 500 |
| COc1ccc(-c2csc(NN=Cc3ccc(-c4ccc([N+](=O)[O-])cc4)o3)n2)cc1 [Compound 7, 4-(4-Methoxyphenyl)-2-[2-((5-(4-nitrophenyl)furan-2-yl)methylene)hydrazinyl]thiazole] | 500 (≈ 1190 µM) | 1000 (≈ 2380 µM) | 500 (≈ 1190 µM) | 500 (≈ 1190 µM) | 500 (≈ 1190 µM) | 500 (≈ 1190 µM) | 232 to 233 |  |  | > 500 | > 500 |
| O=[N+]([O-])c1ccc(-c2csc(NN=Cc3ccc(-c4ccc(Cl)cc4[N+](=O)[O-])o3)n2)cc1 [Compound 9, 2-[2-((5-(4-Chloro-2-nitrophenyl)furan-2-yl)methylene)hydrazinyl]-4-(4-nitrophenyl)thiazole] | 500 (≈ 1060 µM) | 1000 (≈ 2130 µM) | 500 (≈ 1060 µM) | 500 (≈ 1060 µM) | 500 (≈ 1060 µM) | 500 (≈ 1060 µM) | 216 to 220 |  |  | 103 (≈ 218 µM) | 86.3 (≈ 184 µM) |
